The structures appear in SMILES notation. ± gives the expanded uncertainty stated by the source.

Results on 37 compounds are retold here after the NIST ThermoML archive (doi:10.1021/je200637v).

The series can be described thus: activity coefficient (dimensionless); of the first substance listed, at infinite dilution; xn = mol fraction of the nth substance listed. To be noted: Liquid, Chromatography, x1 = 0.

In the case of `CCc1ccccc1` [ethylbenzene] + CCCCCCCCCC[N+](C)(C)C.O=S(=O)([N-]S(=O)(=O)C(F)(F)F)C(F)(F)F, the activity coefficient is, setting by setting: (322.85 K) 1.16 ± 0.04; (332.65 K) 1.2 ± 0.04; (343.15 K) 1.19 ± 0.04.
As for `CC(C)OC(C)C` [diisopropyl ether] + CCCC[N+](C)(CCCC)CCCC.O=S(=O)([N-]S(=O)(=O)C(F)(F)F)C(F)(F)F, the activity coefficient runs as follows: (322.85 K) 3.31 ± 0.15; (332.65 K) 3.35 ± 0.15; (343.15 K) 3.35 ± 0.15.
As to `CCc1ccccc1` [ethylbenzene] + CCCCCCCC[N+](CCCCCCCC)(CCCCCCCC)CCCCCCCC.O=S(=O)([N-]S(=O)(=O)C(F)(F)F)C(F)(F)F, the activity coefficient reads like this: (322.85 K) 0.59 ± 0.03; (332.65 K) 0.6 ± 0.03; (343.15 K) 0.61 ± 0.03.
On the same counts, the results for `C=O` [methanal] + CCCCCCCC[N+](C)(C)C.O=S(=O)([N-]S(=O)(=O)C(F)(F)F)C(F)(F)F are 0.1 ± 0.04, 0.11 ± 0.04 and 0.12 ± 0.04.
Turning to `Cc1ccc(C)cc1` [1,4-dimethylbenzene] + CCCC[N+](C)(CCCC)CCCC.O=S(=O)([N-]S(=O)(=O)C(F)(F)F)C(F)(F)F, the activity coefficient reads like this: (322.85 K) 1.51 ± 0.06; (332.65 K) 1.62 ± 0.07; (343.15 K) 1.56 ± 0.06.
Turning to `ClC(Cl)Cl` [trichloromethane] + CCCCCCCC[N+](CCCCCCCC)(CCCCCCCC)CCCCCCCC.O=S(=O)([N-]S(=O)(=O)C(F)(F)F)C(F)(F)F, the activity coefficient is 0.34 ± 0.04 (322.85 K), 0.35 ± 0.04 (332.65 K) and 0.36 ± 0.04 (343.15 K).
On the same counts, the results for `ClCCl` [dichloromethane] + CCCCCCCC[N+](CCCCCCCC)(CCCCCCCC)CCCCCCCC.O=S(=O)([N-]S(=O)(=O)C(F)(F)F)C(F)(F)F are 0.29 ± 0.04, 0.3 ± 0.04 and 0.31 ± 0.04.
Regarding `Cc1ccccc1C` [1,2-dimethylbenzene] + CCCCCCCC[N+](C)(C)C.O=S(=O)([N-]S(=O)(=O)C(F)(F)F)C(F)(F)F, the activity coefficient came out at 1.24 ± 0.04 (322.85 K), 1.26 ± 0.04 (332.65 K) and 1.25 ± 0.04 (343.15 K).
In the case of `CCCC(C)=O` [pentan-2-one] + CCCCCCCC[N+](CCCCCCCC)(CCCCCCCC)CCCCCCCC.O=S(=O)([N-]S(=O)(=O)C(F)(F)F)C(F)(F)F, the activity coefficient runs as follows: (322.85 K) 0.35 ± 0.04; (332.65 K) 0.36 ± 0.04; (343.15 K) 0.37 ± 0.03.
Taken in the same sequence, the figures for `CCC=O` [propanal] + CCCCCCCC[N+](CCCCCCCC)(CCCCCCCC)CCCCCCCC.O=S(=O)([N-]S(=O)(=O)C(F)(F)F)C(F)(F)F were 0.25 ± 0.04, 0.35 ± 0.04 and 0.35 ± 0.04.
Turning to `CO` [methanol] + CCCCCCCC[N+](CCCCCCCC)(CCCCCCCC)CCCCCCCC.O=S(=O)([N-]S(=O)(=O)C(F)(F)F)C(F)(F)F, the activity coefficient reads like this: (322.85 K) 0.65 ± 0.03; (332.65 K) 0.76 ± 0.03; (343.15 K) 0.82 ± 0.03.
`CC(C)O` [propan-2-ol] + CCCC[N+](C)(CCCC)CCCC.O=S(=O)([N-]S(=O)(=O)C(F)(F)F)C(F)(F)F: the activity coefficient reads like this: (322.85 K) 1.67 ± 0.07; (332.65 K) 1.54 ± 0.06; (343.15 K) 1.4 ± 0.05.
On the same counts, the results for `c1ccsc1` [thiophene] + CCCC[N+](C)(CCCC)CCCC.O=S(=O)([N-]S(=O)(=O)C(F)(F)F)C(F)(F)F are 0.86 ± 0.03, 0.88 ± 0.03 and 0.87 ± 0.03.
Taken in the same sequence, the figures for `CCCCCCCC` [octane] + CCCCCCCC[N+](C)(C)C.O=S(=O)([N-]S(=O)(=O)C(F)(F)F)C(F)(F)F were 11 ± 0.51, 10.3 ± 0.47 and 9.47 ± 0.43.
On the same counts, the results for `C=O` [methanal] + CCCCCCCC[N+](CCCCCCCC)(CCCCCCCC)CCCCCCCC.O=S(=O)([N-]S(=O)(=O)C(F)(F)F)C(F)(F)F are 0.07, 0.08 and 0.09 ± 0.04.
Consider `C1CCCCC1` [cyclohexane] + CCCCCCCC[N+](C)(C)C.O=S(=O)([N-]S(=O)(=O)C(F)(F)F)C(F)(F)F, for which the activity coefficient is, setting by setting: (322.85 K) 4.08 ± 0.19; (332.65 K) 3.84 ± 0.17; (343.15 K) 3.57 ± 0.16.
`C1CCCCCC1` [cycloheptane] + CCCCCCCC[N+](C)(C)C.O=S(=O)([N-]S(=O)(=O)C(F)(F)F)C(F)(F)F: the activity coefficient is, setting by setting: (322.85 K) 10.8 ± 0.5; (332.65 K) 14.7 ± 0.68; (343.15 K) 19.4 ± 0.9.
As to `ClC(Cl)Cl` [trichloromethane] + CCCC[N+](C)(CCCC)CCCC.O=S(=O)([N-]S(=O)(=O)C(F)(F)F)C(F)(F)F, the activity coefficient is, setting by setting: (322.85 K) 0.84 ± 0.03; (332.65 K) 0.87 ± 0.03; (343.15 K) 0.88 ± 0.03.
Taken in the same sequence, the figures for `c1ccccc1` [benzene] + CCCCCCCCCC[N+](C)(C)C.O=S(=O)([N-]S(=O)(=O)C(F)(F)F)C(F)(F)F were 0.71 ± 0.03, 0.73 ± 0.03 and 0.72 ± 0.03.
On the same counts, the results for `CC#N` [acetonitrile] + CCCCCCCC[N+](C)(C)C.O=S(=O)([N-]S(=O)(=O)C(F)(F)F)C(F)(F)F are 0.48 ± 0.03, 0.46 ± 0.03 and 0.44 ± 0.03.
On the same counts, the results for `CC(C)CC(C)(C)C` [2,2,4-trimethylpentane] + CCCCCCCC[N+](CCCCCCCC)(CCCCCCCC)CCCCCCCC.O=S(=O)([N-]S(=O)(=O)C(F)(F)F)C(F)(F)F are 1.52 ± 0.06, 1.51 ± 0.06 and 1.5 ± 0.06.
Turning to `CC(C)CC(C)(C)C` [2,2,4-trimethylpentane] + CCCC[N+](C)(CCCC)CCCC.O=S(=O)([N-]S(=O)(=O)C(F)(F)F)C(F)(F)F, the activity coefficient was found to be 8.87 ± 0.41 (322.85 K), 8.91 ± 0.41 (332.65 K) and 8.42 ± 0.39 (343.15 K).
Taken in the same sequence, the figures for `CCOCC` [diethyl ether] + CCCCCCCCCC[N+](C)(C)C.O=S(=O)([N-]S(=O)(=O)C(F)(F)F)C(F)(F)F were 1.23 ± 0.04, 1.24 ± 0.04 and 1.21 ± 0.04.
Take `CCC(=O)CC` [pentan-3-one] + CCCCCCCCCC[N+](C)(C)C.O=S(=O)([N-]S(=O)(=O)C(F)(F)F)C(F)(F)F: the activity coefficient is, setting by setting: (322.85 K) 0.41 ± 0.03; (332.65 K) 0.43 ± 0.03; (343.15 K) 0.44 ± 0.03.
Taken in the same sequence, the figures for `CCCCCCCCC` [nonane] + CCCCCCCC[N+](CCCCCCCC)(CCCCCCCC)CCCCCCCC.O=S(=O)([N-]S(=O)(=O)C(F)(F)F)C(F)(F)F were 2.19 ± 0.1, 2.14 ± 0.1 and 2.09 ± 0.09.
Take `CCCCO` [butan-1-ol] + CCCCCCCC[N+](CCCCCCCC)(CCCCCCCC)CCCCCCCC.O=S(=O)([N-]S(=O)(=O)C(F)(F)F)C(F)(F)F: the activity coefficient runs as follows: (322.85 K) 3.08 ± 0.14; (332.65 K) 1.12 ± 0.03; (343.15 K) 1.04 ± 0.03.
On the same counts, the results for `C#CCCCCC` [1-heptyne] + CCCCCCCC[N+](C)(C)C.O=S(=O)([N-]S(=O)(=O)C(F)(F)F)C(F)(F)F are 2.48 ± 0.11, 2.46 ± 0.11 and 2.39 ± 0.11.
On the same counts, the results for `CCCCCC` [hexane] + CCCCCCCC[N+](CCCCCCCC)(CCCCCCCC)CCCCCCCC.O=S(=O)([N-]S(=O)(=O)C(F)(F)F)C(F)(F)F are 1.3 ± 0.04, 1.29 ± 0.04 and 1.28 ± 0.04.
Taken in the same sequence, the figures for `ClC(Cl)(Cl)Cl` [tetrachloromethane] + CCCC[N+](C)(CCCC)CCCC.O=S(=O)([N-]S(=O)(=O)C(F)(F)F)C(F)(F)F were 2.11 ± 0.1, 2.11 ± 0.1 and 2.07 ± 0.09.
Turning to `CCC(C)=O` [butanone] + CCCCCCCC[N+](CCCCCCCC)(CCCCCCCC)CCCCCCCC.O=S(=O)([N-]S(=O)(=O)C(F)(F)F)C(F)(F)F, the activity coefficient reads like this: (322.85 K) 0.29 ± 0.04; (332.65 K) 0.28 ± 0.04; (343.15 K) 0.26 ± 0.04.
For `CCCCCCCCCCC` [undecane] + CCCCCCCC[N+](C)(C)C.O=S(=O)([N-]S(=O)(=O)C(F)(F)F)C(F)(F)F, the activity coefficient is, setting by setting: (322.85 K) 25.8 ± 1.2; (332.65 K) 23.7 ± 1.1; (343.15 K) 21.1 ± 0.98.
As for `ClC(Cl)(Cl)Cl` [tetrachloromethane] + CCCCCCCC[N+](C)(C)C.O=S(=O)([N-]S(=O)(=O)C(F)(F)F)C(F)(F)F, the activity coefficient was 1.63 ± 0.07 (322.85 K), 1.63 ± 0.07 (332.65 K) and 1.6 ± 0.06 (343.15 K).
As to `C=CCCCC` [hex-1-ene] + CCCCCCCCCC[N+](C)(C)C.O=S(=O)([N-]S(=O)(=O)C(F)(F)F)C(F)(F)F, the activity coefficient by setting is: (322.85 K) 2.7 ± 0.12; (332.65 K) 2.86 ± 0.13; (343.15 K) 2.76 ± 0.13.
In the case of `CCC[N+](=O)[O-]` [1-nitropropane] + CCCCCCCCCC[N+](C)(C)C.O=S(=O)([N-]S(=O)(=O)C(F)(F)F)C(F)(F)F, the activity coefficient is 0.59 ± 0.03 (322.85 K), 0.59 ± 0.03 (332.65 K) and 0.57 ± 0.03 (343.15 K).
Consider `c1ccccc1` [benzene] + CCCCCCCC[N+](C)(C)C.O=S(=O)([N-]S(=O)(=O)C(F)(F)F)C(F)(F)F, for which the activity coefficient worked out at 0.73 ± 0.03 (322.85 K), 0.74 ± 0.03 (332.65 K) and 0.73 ± 0.03 (343.15 K).
For `c1ccncc1` [pyridine] + CCCCCCCC[N+](C)(C)C.O=S(=O)([N-]S(=O)(=O)C(F)(F)F)C(F)(F)F, the activity coefficient is 0.45 ± 0.03 (322.85 K), 0.44 ± 0.03 (332.65 K) and 0.43 ± 0.03 (343.15 K).
As to `C=CCCCC` [hex-1-ene] + CCCCCCCC[N+](CCCCCCCC)(CCCCCCCC)CCCCCCCC.O=S(=O)([N-]S(=O)(=O)C(F)(F)F)C(F)(F)F, the activity coefficient is, setting by setting: (322.85 K) 1.05 ± 0.03; (332.65 K) 1.05 ± 0.03; (343.15 K) 1.04 ± 0.03.
